Laboratory results taken from patent US20120121680A1, “ANIMAL REPELLING DEICER” (NORTH AMERICAN SALT COMPANY, priority 2010, published 2012).

System: whitetail deer
Experiment: Free-choice consumption of repellent-adulterated salt by salt-deprived deer
Format: in vivo
Conditions: mean per 48-hour provision, dry matter basis
Procedure: The products evaluated were three classes of commercially available, non-lethal repellents. Products that repel deer based on taste modification, chemical irritation and fear were evaluated. One gram of water was used to blend the dry repellents with loose salt in a V-mixer (tumble mixer). Liquid repellents were added directly to salt and blended using the V-mixer. After blending, the adulterated salt was weighed into labeled, channel-lock bags, sealed, and stored for eventual delivery to the test farm.
Testing was carried out at the farm of a whitetail deer farmer located in Indiana. The testing was carried out by both the farmer and a veterinarian. Approximately twelve deer that ranged in age from 1.5 to 3 years were used in the study. The deer appeared to be healthy at the beginning of the study and maintained satisfactory health during the completion of the study. Signs consistent with clinical disease were not observed, and medical treatments were not administered to any of the deer. The deer were divided into two groups and housed in two separate grass paddocks. Each paddock housed approximately six deer. The size of the paddocks was about 250 ft.×100 ft.
The deer used in the study were fed a diet that was devoid of supplemental salt. Feed was provided in plastic feeders on the ground and inside a wooden, three-sided feeding station that was constructed by the farm owner. Feeding stations were present in both paddocks. Salt was provided free-choice in shallow, black rubber pans, and the pans were housed in a raised, wooden trough that was mounted on the wall of the feeding station. Water was provided to the deer in round plastic containers located within the paddocks. Water and feed were provided to the deer by the farm owner.
Prior to initiation of the study, the salt-free diet and free-choice, unadulterated salt were provided to the deer for a period of one-week to permit acclimation to the feeding regimen. After initiation of the study, access to salt was restricted in an attempt to impose a state of salt deprivation in the deer. Free-choice, unadulterated salt was removed, and the deer were fed the diet deficient in salt for a period of 48 hours to induce salt deprivation. After 48 hours, free-choice salt containing the different repellents was provided. After 48 hours, salt containing the repellents was removed, and another 48-hour period of salt deprivation was imposed followed by provision of adulterated salt for another 48-hour period. The regimen of 48 hours of adulterated salt provision, 48 hours of salt deprivation was used throughout the study and constituted an experimental replication. A total of eight replications were completed for the chemical irritation and fear class of repellents. A total of seven replications were completed for the taste class of repellents.
The pans containing adulterated salt were randomly arranged in the raised, wooden trough on each replication to prevent the deer from becoming habituated to the placement of repellents in a particular position in the trough. A one-week period of access to unadulterated salt was permitted after the final replication of the respective classes of repellents was completed. The experimental period for each class of repellents varied between 28 and 32 days.
Absolute dry matter of unadulterated salt was determined by drying 1 gram samples in a 212° F. (100° C.) oven for a period of 24 hours. Dry matter of unadulterated salt was determined to be 99.8%. After collection of adulterated and unadulterated salt from the feeding stations, the salt was transferred to aluminum pans and dried in a 131° F. (55° C.) oven for 48 hours to determine physiologic dry matter.
Salt consumption was determined by calculating the difference between salt provided and salt collected after 48 hours. The data was converted to, and expressed on, a dry matter basis.
Consumption data for the two paddocks was merged for analysis. […]

[1] = taste repellents in free salt at Table 1 inclusion rates, seven replications

Molecule | Consumed [1] | further results
CC[N+](CC)(CC(=O)Nc1c(C)cccc1C)Cc1ccccc1 [Bitrex, Denatonium benzoate] | 8.29 g | –
COc1cc(CNC(=O)CCCC/C=C/C(C)C)ccc1O [Capsaicin] | – | Consumed (chemical irritation repellent, 0.007% by weight in salt, eight replications): 8.81 g; Consumed (chemical irritation repellent, 0.07% by weight in salt, eight replications): 9.38 g
[Cl-].[Li+] [Lithium Chloride, Lithium chloride] | – | Consumed (chemical irritation repellent, 0.38% by weight in salt, eight replications): 7.06 g
Acid casein | 8.21 g | –
Rennet casein | 10.43 g | –
Sodium caseinate | 7.62 g | –
